The values below come from US20150175655A1 (priority 2012, published 2015).

Holding throughout (assay type): cell-based
The subject of test [1] is genotype 1b stable HCV replicon in Huh-7-derived cells. Put plainly: Stable subgenomic HCV replicon EC50, genotype 1b (Renilla luciferase). The conditions noted are these: Hepatitis C virus, stable replicon genotype 1b, 72 h, read-out: EC50 1B RLUC. The procedure:
(§1) Antiviral potency (EC50) was determined in both stable subgenomic HCV replicon cell lines and transient-transfected HCV replicon cells. The term half maximal effective concentration (EC50) refers to the concentration of a drug which induces a response halfway between the baseline and maximum after the exposure time specified below.
(§2) Stable subgenomic HCV replicons for genotype 1a, 1 b, 2a, 3a, and 4a were established in Huh-7-derived cells as described by Lohmann et al (Lohmann V, Korner F, Koch J, et al Replication of subgenomic hepatitis C virus RNAs in a hepatoma cell line. Science 1999; 285:119-3). Each stable cell line contains a bicistronic HCV replicon that encodes a humanized Renilla luciferase (hRLuc) reporter gene fused to a selectable neomycin-resistance gene, followed by an EMCV IRES and the NS3-NS5B coding region of HCV. […] Luciferase activity was measured as a marker for intracellular HCV replication levels.
(§3) The genotype 1a stable replicon was derived from the H77 HCV strain and contained adaptive mutations P1496L and S2204I. The genotype 1 b stable replicon was derived from the Cont HCV strain and contained adaptive mutations E1202G, T1280I, and K1846T. […] The genotype 3a stable replicon was derived from the S52 HCV strain and contained adaptive mutations P1121 L, A1198T and S2210I (equivalent to S2204I in genotype 1). The genotype 4a stable replicon was derived from the ED43 HCV strain and contained adaptive mutations Q1691R and S2204I. All replicon cell lines were propagated in Huh-7-derived cells and maintained in Dulbecco's modified Eagle's Medium (DMEM) supplemented with 10% fetal bovine serum (FBS) and 0.5 mg/mL G418.
(§4) To perform EC50 assays, cells from each HCV replicon were dispensed into 384-well plates. Compounds were dissolved in DMSO at a concentration of 10 mM and diluted in DMSO using an automated pipetting instrument. Three-fold serially diluted compounds were directly added to the cells using an automated instrument. […] Seventy-two hours later, cells were lysed and Renilla luciferase activity were quantified as recommended by the manufacturer (Promega-Madison, Wis.). Non-linear regression was performed to calculate EC50 values.

Test [2] concerns genotype 2a stable HCV replicon (JFH-1 strain) in Huh-7-derived cells. Briefly: Stable subgenomic HCV replicon EC50, genotype 2a (Renilla luciferase). The following applies: Hepatitis C virus, stable replicon genotype 2a, 72 h, read-out: EC50 2A RLUC. The procedure: as §1, §2, §3, §4
(In general: A replicon is a self-replicating genome or part of one, used to study replication in cells.)

Test [3] has as its system genotype 3a transient HCV replicon (S52 strain) in Huh-7-derived cells. Briefly: Transient-transfected HCV replicon EC50, genotype 3a wild type. The conditions noted are these: Hepatitis C virus; transient-transfected replicon genotype 3a wild type, 72 h; read-out: EC50 3A WT.
Test [4] relates to genotype 1b (Con1) wild-type transient HCV replicon in Huh-7-derived cells. Put plainly: Transient-transfected HCV replicon EC50, genotype 1b wild type. The following applies: Hepatitis C virus; transient-transfected replicon genotype 1b wild type, 72 h; read-out: EC50 1B WT.
Test [5] concerns genotype 4a stable HCV replicon (ED43 strain) in Huh-7-derived cells. Put plainly: Stable subgenomic HCV replicon EC50, genotype 4a (Renilla luciferase). The conditions noted are these: Hepatitis C virus, 72 h, read-out: EC50 4A RLUC. The procedure:
as §1, §2, §3, §4

In test [6] the test system is genotype 1b transient HCV replicon, NS3/4a protease inhibitor resistant variant D168A, in Huh-7-derived cells. Briefly: Transient-transfected HCV replicon EC50, genotype 1b D168A. The following applies: Hepatitis C virus, 72 h, read-out: EC50 1B D168A.

What is called EC50 is the midpoint of the concentration-response curve. As to `CC[C@@H]1[C@@H]2CN(C(=O)[C@H](C(C)(C)C)NC(=O)O[C@]3(C)CCC[C@H]3CCCCCc3nc4ccc(OC)cc4nc3O2)[C@@H]1C(=O)N[C@]1(C(=O)NS(=O)(=O)C2(C)CC2)C[C@H]1CC(F)F` [Example 41, (3aR,7S,10S,11S,12R,24aR)-7-tert-butyl-N-[(1R,2S)-2-(2,2-difluoroethyl)-1-{[(1-methylcyclopropyl)sulfonyl]carbamoyl}cyclopropyl]-11-ethyl-16-methoxy-3a-methyl-5,8-dioxo-1,2,3,3a,5,6,7,8,11,12,20,21,22,23,24,24a-hexadecahydro-10H-9,12-methanocyclopenta[18,19][1,10,3,6]dioxadiazacyclononadecino[11,12-b]quinoxaline-10-carboxamide], the EC50 in test [1] is 0.142 µM; in test [2], 0.106 µM; in test [3] it was 0.539 µM; in test [4], 0.154 µM.
On to `COc1ccc2nc3c(nc2c1)O[C@H]1CN(C(=O)[C@H](C(C)(C)C)NC(=O)O[C@@H]2C[C@H]2CCCCC3F)[C@H](C(=O)N[C@]2(C(=O)NS(=O)(=O)C3(C)CC3)C[C@H]2C(F)F)[C@@H]1C` (stereo partly drawn) [Example 47, (1aR,5S,8S,9S,10R,22aR)-5-tert-butyl-N-[(1R,2R)-2-(difluoromethyl)-1-{[(1-methylcyclopropyl)sulfonyl]carbamoyl}cyclopropyl]-18-fluoro-14-methoxy-9-methyl-3,6-dioxo-1,1a,3,4,5,6,9,10,18,19,20,21,22,22a-tetradecahydro-8H-7,10-methanocyclopropa[18,19][1,10,3,6]dioxadiazacyclononadecino[11,12-b]quinoxaline-8-carboxamide], for which the EC50 in test [1] was 0.0036 µM; in test [2], 0.012 µM; in test [5], 0.0042 µM; in test [3], 0.017 µM; in test [4], 0.002 µM; in test [6] it was 0.012 µM.
As for `CC[C@@H]1[C@@H]2CN(C(=O)[C@H](C(C)(C)C)NC(=O)O[C@@H]3C[C@H]3CC/C=C/C(F)(F)C3Nc4ccc(C#N)cc4N=C3O2)[C@@H]1C(=O)N[C@]1(C(=O)NS(=O)(=O)C2(C)CC2)C[C@H]1C(F)F` (stereo partly drawn) [Example 78, (1aR,5S,8S,9S,10R,19E,22aR)-5-tert-butyl-14-cyano-N-[(1R,2R)-2-(difluoromethyl)-1-{[(1-methylcyclopropyl)sulfonyl]carbamoyl}cyclopropyl]-9-ethyl-18,18-difluoro-3,6-dioxo-1,1a,3,4,5,6,9,10,17,17a,18,21,22,22a-tetradecahydro-8H-7,10-methanocyclopropa[18,19][1,10,3,6]dioxadiazacyclononadecino[11,12-b]quinoxaline-8-carboxamide], the EC50 in test [1] worked out at 0.394 µM; in test [2], 0.195 µM; in test [5] it was 0.225 µM; in test [3], 0.194 µM; in test [4], 0.156 µM; in test [6] it was 0.248 µM.
Take `C[C@@H]1[C@@H]2CN(C(=O)[C@H](C(C)(C)C)NC(=O)O[C@@H]3C[C@H]3CCCCC(F)(F)c3nc4ccc(Cl)cc4nc3O2)[C@@H]1C(=O)N[C@]1(C(=O)NS(=O)(=O)C2(C)CC2)C[C@H]1C(F)F` [Example 88, (1aR,5S,8S,9S,10R,22aR)-5-tert-butyl-14-chloro-N-[(1R,2R)-2-(difluoromethyl)-1-{[(1-methylcyclopropyl)sulfonyl]carbamoyl}cyclopropyl]-18,18-difluoro-9-methyl-3,6-dioxo-1,1a,3,4,5,6,9,10,18,19,20,21,22,22a-tetradecahydro-8H-7,10-methanocyclopropa[18,19][1,10,3,6]dioxadiazacyclononadecino[11,12-b]quinoxaline-8-carboxamide]: the EC50 in test [1] is 0.0046 µM; in test [2], 0.0027 µM; in test [5] it was 0.0041 µM; in test [3] it was 0.035 µM; in test [4], 0.0055 µM; in test [6] it was 0.024 µM.
